Measured values from patent US20220152165A1, “COMBINATION OF NASAL GENE DELIVERY AND ORAL CINNAMIC ACID, OLEAMIDE OR GEMFIBROZIL FOR LYSOSOMAL STOARGE DISORDERS” (Rush University Medical Center, priority 2019, published 2022).

Test system: Cln2^(−/−) mice
Test: Life span of Cln2^(−/−) mice, animal model of late infantile Batten disease (LINCL)
Type: in vivo
Settings: n=6
Description: For intranasal gene delivery, Cln2^(−/−) mice received 5×10^6 genome copies of Ad-Cln2 in a volume of […] twice a week intranasally (2.5 μl/nostril) starting from two weeks of age for four weeks. For gemfibrozil (gem) treatment, mice received gem (dissolved in 0.1% MeC) orally at a dose of 7.5 mg/kg body weight/day starting from six weeks of age. FIG. 1 describes the percentage of survival is shown by Kaplan-Meier plot.
For intranasal gene delivery, Cln2^(−/−) mice received 5×10^6 genome copies of Ad-Cln2 in a volume of […] twice a week intranasally (2.5 μl/nostril) starting from two weeks of age for four weeks. For gemfibrozil (gem) treatment, mice received gem (dissolved in 0.1% MeC) orally at a dose of 7.5 mg/kg body weight/day starting from six weeks of age. FIG. 2 describes mean survival days. Six mice (n=6) containing 3 males and 3 females were used in each group. ***p<0.001; NS, not significant.
Intranasal gene delivery was examined as a valid option for fatal lysosomal storage disorders. A mouse model of Late Infantile Neuronal Ceroid Lipofuscinosis (LINCL) was used, a rare neurodegenerative disease caused by mutations in the Cln2 gene that leads to deficiency or loss of function of the tripeptidyl peptidase 1 (TPP1) enzyme. […]

Cc1ccc(C)c(OCCCC(C)(C)C(=O)O)c1 [gemfibrozil, 5-(2,5-dimethylphenoxy)-2,2-dimethylpentanoic acid]
lifespan of Cln2^−/− mice (gemfibrozil alone, oral 7.5 mg/kg body weight/day starting from six weeks of age, mice not receiving Ad-Cln2): significantly increased the lifespan
lifespan of Cln2^−/− mice that received intranasal Ad-Cln2 (oral gemfibrozil 7.5 mg/kg body weight/day after 4 weeks of intranasal Ad-Cln2, compared with Ad-Cln2 alone): did not further increase the lifespan
